# From patent publication US8334298B2, “Treatment or prevention of ovarian hyperstimulation syndrome (OHSS) using a dopamine agonist” (Ferring International Center S.A., priority 2005, dated 2012)
# Tested on: OHSS rats
# Assay: Vascular permeability (Evans Blue) in OHSS rats treated with bromocriptine (Example 1)
# Type: in vivo, Wistar rats
# Details: VP 48 h after hCG
# Experimental: Drug Treatment. Immature female Wistar rats were employed. In the OHSS group (n=8), Pregnant Mare's Serum Gonadotropin (PMSG) was administered at 10 IU/day for 4 days, followed by hCG (30 IU) on the fifth day. In the mild (i.e., ovarian stimulation) group (n=8), 10 IU of PMSG was administered followed 2 days later by administration of 10 IU of hCG. In the control group, 1 IU of PMSG was administered followed by 1 IU of hCG 48 hrs later. Vascular Permeability Measurement. Vascular permeability was measured 48 hours following hCG administration. 0.2 ml of 5 mM Evans Blue stain was injected via the femoral vein. After 30 minutes, the peritoneal cavity was irrigated with saline. Light absorption was measured in the recovered fluid at 595 nm and the vascular permeability was expressed as μg Evans blue/100 g body weight. In a second series of experiments, varying doses of bromocriptine were administered in a group of rats induced to develop OHSS with 40 IU of PMSG followed by 30 IU of hCG. 1.6, 4.0, 10.0 and 25.0 mg/kg of bromocriptine were intraperitoneally administered on the day of hCG administration and 24 hours later. VP was measured 48 hours following hCG administration.
smiles,measurement,setting,value
CC(C)C[C@H]1C(=O)N2CCC[C@H]2[C@]2(O)O[C@](NC(=O)[C@@H]3C=C4c5cccc6[nH]c(Br)c(c56)C[C@H]4N(C)C3)(C(C)C)C(=O)N12 [bromocriptine],vascular permeability,"1.6 mg bromocriptine i.p. on day of hCG and 24 h later, p=0.04",15.3±3.3 μg Evans Blue/100 g body weight
same,vascular permeability,"4 mg bromocriptine i.p. on day of hCG and 24 h later, p=0.04",14.2±2.2 μg Evans Blue/100 g body weight
same,vascular permeability,"10 mg bromocriptine i.p. on day of hCG and 24 h later, p=0.009",10.1±2.6 μg Evans Blue/100 g body weight
same,vascular permeability,"25 mg bromocriptine i.p. on day of hCG and 24 h later, p=0.001",8.0±1.9 μg Evans Blue/100 g body weight
